Measurements taken from patent US12295937B2, “Psychoactive medicines and their use for treating psychiatric and neurological conditions and disorders” (Transcend Therapeutics, Inc., priority 2021, dated 2025).
Like-named read-outs stand apart in the source and are kept apart here.

Key:
[1] = system: gene expression in amygdala, frontal cortex, hippocampus; test: RNA-sequencing of rat brain areas after a single dose; assay type: in vivo
[2] = biological target: T1, Human serotonin 5HT2B receptor (Homo sapiens, UniProt P41595); settings: read-out: Ki (reported); reported values; cited from earlier work
T1 sequence (P41595 whole entry): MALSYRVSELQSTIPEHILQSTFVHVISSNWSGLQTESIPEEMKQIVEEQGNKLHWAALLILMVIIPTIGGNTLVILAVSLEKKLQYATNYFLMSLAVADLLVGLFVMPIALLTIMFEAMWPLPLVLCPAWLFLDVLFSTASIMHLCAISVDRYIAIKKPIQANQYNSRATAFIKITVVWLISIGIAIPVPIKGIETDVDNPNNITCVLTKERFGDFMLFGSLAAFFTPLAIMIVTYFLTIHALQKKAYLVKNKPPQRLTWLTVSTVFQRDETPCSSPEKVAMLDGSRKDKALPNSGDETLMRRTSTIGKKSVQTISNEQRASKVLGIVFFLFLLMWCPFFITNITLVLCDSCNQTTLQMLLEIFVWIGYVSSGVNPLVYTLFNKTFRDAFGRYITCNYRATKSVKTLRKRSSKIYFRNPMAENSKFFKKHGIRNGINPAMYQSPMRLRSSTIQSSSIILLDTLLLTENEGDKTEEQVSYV

[3] = biological target: T1, Human serotonin 5HT2B receptor; test: Competitive radioligand binding to 5HT2B receptor membranes
Experimental: Human serotonin 5HT2B receptor membrane preparations were divided into aliquots. On the day of the assay, membranes were diluted at 1:200 in incubation buffer. […] To each well was added 150 μL membrane preparation, 50 μL test compound, non-specific compound, or buffer alone, as well as 50 μL radioligand. The plate was incubated at 35° C. for 90 minutes with gentle agitation. […] For each concentration of drug, non-specific binding was subtracted from total binding to give specific binding. […] Ki was subsequently calculated using the ChengPrusoff equation.

NET [4] = biological target: T2, NET (Rattus norvegicus, UniProt Q63380); test: [3H]NE release from rat brain synaptosomes; assay type: biochemical; parameters: from tissue; synaptosomes for uptake and release
T2 sequence (Q63380 1-617): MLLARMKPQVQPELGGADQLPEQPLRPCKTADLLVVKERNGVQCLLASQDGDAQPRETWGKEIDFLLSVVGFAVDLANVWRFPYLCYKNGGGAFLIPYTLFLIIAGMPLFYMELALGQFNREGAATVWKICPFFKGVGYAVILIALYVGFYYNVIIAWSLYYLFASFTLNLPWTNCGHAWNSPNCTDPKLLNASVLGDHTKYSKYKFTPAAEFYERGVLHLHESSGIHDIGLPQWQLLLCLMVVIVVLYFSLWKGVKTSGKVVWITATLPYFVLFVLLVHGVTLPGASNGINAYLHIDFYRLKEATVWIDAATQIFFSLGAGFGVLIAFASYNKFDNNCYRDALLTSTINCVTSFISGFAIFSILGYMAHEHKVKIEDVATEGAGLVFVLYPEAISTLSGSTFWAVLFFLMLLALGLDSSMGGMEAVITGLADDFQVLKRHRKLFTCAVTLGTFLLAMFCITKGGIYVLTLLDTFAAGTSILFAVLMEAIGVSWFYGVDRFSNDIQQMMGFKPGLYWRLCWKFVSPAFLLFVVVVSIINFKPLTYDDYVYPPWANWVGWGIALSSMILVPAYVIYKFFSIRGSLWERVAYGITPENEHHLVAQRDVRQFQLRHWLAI
Experimental: (§1) Test compounds and synaptosomes were prepared as described for uptake inhibition assays. Synaptosomes treated with [^3H]5-HT, [^3H]DA or [^3H]NE were loaded onto filter chambers containing GF/C filters and placed in a superfusion system. Oxygenated Krebs buffer was perfused through the chambers at a rate of 1.5 mL/minute at 35° C. using either an 8-channel or a 12-channel peristaltic pump. Trapped air bubbles were removed from the filters prior to collecting fractions to ensure an even flow over the synaptosomal bed. After a superfusion period of 45 minutes, 2 basal fractions were collected followed by 6 fractions following the addition of the test drug. […] Scintillation cocktail was added, and the filters counted to determine residual radioactivity. Drug-evoked release of neurotransmitter was calculated by subtracting the average of the two basal fractions (collected prior to the drug addition), from the four fractions collected in the presence of drug. The drug-evoked release was then expressed as a percentage of the basal release. Potassium-evoked release was calculated by subtracting the average of two fractions collected prior to the addition of high KCl buffer from that in the two fractions following addition of high KCl buffer. Potassium-stimulated release was calculated as a percentage of basal release. […]

SERT [5] = biological target: T3, SERT (Rattus norvegicus, UniProt P31652); test: [3H]5-HT release from rat brain synaptosomes; assay type: biochemical; parameters: from tissue; synaptosomes for uptake and release
T3 sequence (P31652 whole entry): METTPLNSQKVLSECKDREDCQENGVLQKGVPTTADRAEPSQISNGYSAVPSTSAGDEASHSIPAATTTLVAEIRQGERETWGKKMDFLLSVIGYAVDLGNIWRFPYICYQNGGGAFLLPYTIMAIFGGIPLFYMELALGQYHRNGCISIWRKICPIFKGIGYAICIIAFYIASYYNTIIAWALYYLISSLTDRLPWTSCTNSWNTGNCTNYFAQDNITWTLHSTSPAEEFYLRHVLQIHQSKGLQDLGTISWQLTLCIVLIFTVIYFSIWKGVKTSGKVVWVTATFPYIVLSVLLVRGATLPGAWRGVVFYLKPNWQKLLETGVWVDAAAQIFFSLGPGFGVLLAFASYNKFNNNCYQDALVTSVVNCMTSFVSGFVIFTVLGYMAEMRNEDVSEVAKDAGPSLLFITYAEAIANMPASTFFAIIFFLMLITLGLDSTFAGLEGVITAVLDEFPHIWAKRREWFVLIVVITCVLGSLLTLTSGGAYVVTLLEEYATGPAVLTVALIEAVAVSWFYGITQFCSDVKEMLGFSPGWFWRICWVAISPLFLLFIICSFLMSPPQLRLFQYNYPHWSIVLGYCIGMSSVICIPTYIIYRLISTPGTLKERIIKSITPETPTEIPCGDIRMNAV
Experimental: as §1

[6] = system: myelin basic protein (MBP); test: Myelin basic protein immunohistochemistry in amygdala; assay type: in vivo, rat; settings: 10 mg/kg IP, 24 h
Experimental: Immunohistochemistry: The in-life portion of the study was conducted at WuXi Apptec (Cranbury, NJ). Sectioning and staining of brains took place at Neuroscience Associates (NSA, Knoxville, TN). […] Brains were post-fixed in PFA before shipment to NSA for processing and staining. Hemisected brains were mounted, sectioned and stained using standard protocols with myelin-basic protein primary antibody (MBP SMI-99, 1:5000, Biolegend, San Diego, CA) and anti-mouse biotinylated secondary antibody (BA-2001, Vector Laboratories, Newark, CA). Slides were imaged using a Huron Digital Pathology TissueScope LE120 whole slide scanning system. 20× objective was used with a 0.4 μm/pixel resolution.

DAT [7] = biological target: T4, DAT (Rattus norvegicus, UniProt P23977); test: [3H]DA uptake inhibition in rat brain synaptosomes
T4 sequence (P23977 whole entry): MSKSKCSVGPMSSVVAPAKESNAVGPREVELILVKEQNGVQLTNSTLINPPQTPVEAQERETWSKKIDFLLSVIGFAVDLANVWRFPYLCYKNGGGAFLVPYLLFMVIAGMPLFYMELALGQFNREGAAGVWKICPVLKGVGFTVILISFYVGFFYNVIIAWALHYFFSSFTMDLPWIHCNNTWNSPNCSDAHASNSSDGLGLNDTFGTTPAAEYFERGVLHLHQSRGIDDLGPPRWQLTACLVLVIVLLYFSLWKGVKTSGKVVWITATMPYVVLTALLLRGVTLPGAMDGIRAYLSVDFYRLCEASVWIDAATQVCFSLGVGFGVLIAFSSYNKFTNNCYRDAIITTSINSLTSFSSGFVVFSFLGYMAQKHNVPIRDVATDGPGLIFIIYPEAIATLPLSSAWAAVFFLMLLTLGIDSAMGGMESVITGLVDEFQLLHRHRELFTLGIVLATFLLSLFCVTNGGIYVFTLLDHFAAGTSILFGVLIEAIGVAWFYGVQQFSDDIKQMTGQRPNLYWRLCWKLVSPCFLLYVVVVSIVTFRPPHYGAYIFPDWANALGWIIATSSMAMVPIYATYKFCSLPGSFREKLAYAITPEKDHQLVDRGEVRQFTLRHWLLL

[8] = 13 of 77 deaths, meta-analysis; cited from earlier work
[9] = depending on the animal model and dosing conditions; cited from earlier work
[10] = 7.5 mg/kg 30 minutes prior to extinction training (Young 2015); cited from earlier work
5HT2C receptor [11] = biological target: T5, 5HT2C receptor (Homo sapiens, UniProt P28335); test: GPCRmax screen, agonist mode, 5HT2C; assay type: cell-based; settings: 1 or 10 mM
T5 construct: host or cells: PathHunter cell lines
T5 sequence (P28335 33-458): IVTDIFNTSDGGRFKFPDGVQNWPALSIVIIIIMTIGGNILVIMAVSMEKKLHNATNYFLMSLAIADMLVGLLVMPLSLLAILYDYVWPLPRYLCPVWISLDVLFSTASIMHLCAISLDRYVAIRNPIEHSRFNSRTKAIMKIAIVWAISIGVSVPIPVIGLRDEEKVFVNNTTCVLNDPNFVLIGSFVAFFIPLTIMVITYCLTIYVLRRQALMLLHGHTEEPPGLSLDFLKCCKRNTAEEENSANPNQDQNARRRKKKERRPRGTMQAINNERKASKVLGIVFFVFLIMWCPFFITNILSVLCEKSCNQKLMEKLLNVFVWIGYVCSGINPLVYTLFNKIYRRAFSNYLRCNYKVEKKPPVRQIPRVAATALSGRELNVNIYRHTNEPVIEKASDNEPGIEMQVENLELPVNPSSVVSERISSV

NET [12] = biological target: T2, NET; test: [3H]NE uptake inhibition in rat brain synaptosomes
5HT2A receptor = biological target: T6, 5HT2A receptor (Homo sapiens, UniProt P28223); test: GPCRmax screen, agonist mode, 5HT2A; assay type: cell-based; settings: 1 or 10 mM
T6 construct: host or cells: PathHunter cell lines
T6 sequence (P28223 whole entry): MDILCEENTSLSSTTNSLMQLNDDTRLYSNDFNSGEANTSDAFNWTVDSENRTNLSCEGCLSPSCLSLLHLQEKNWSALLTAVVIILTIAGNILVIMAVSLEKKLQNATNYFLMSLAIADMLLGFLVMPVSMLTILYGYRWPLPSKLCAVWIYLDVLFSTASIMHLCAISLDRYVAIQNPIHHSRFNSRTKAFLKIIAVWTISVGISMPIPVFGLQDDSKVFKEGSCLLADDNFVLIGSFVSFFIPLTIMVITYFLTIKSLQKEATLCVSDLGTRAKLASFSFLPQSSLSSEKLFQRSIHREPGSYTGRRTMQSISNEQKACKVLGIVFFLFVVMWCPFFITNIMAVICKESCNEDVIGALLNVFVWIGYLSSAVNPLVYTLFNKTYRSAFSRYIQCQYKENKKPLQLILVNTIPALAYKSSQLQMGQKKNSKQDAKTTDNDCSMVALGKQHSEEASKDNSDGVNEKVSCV

SERT [13] = biological target: T3, SERT; test: [3H]5-HT uptake inhibition in rat brain synaptosomes
DAT [14] = biological target: T4, DAT; test: [3H]DA release from rat brain synaptosomes; assay type: biochemical; parameters: from tissue; synaptosomes for uptake and release
Experimental: as §1

[15] = cited from earlier work
5HT2C receptor [16] = biological target: T5, 5HT2C receptor; test: GPCRmax screen, antagonist mode, 5HT2C; assay type: cell-based; settings: 1 or 10 mM

CNC(C)Cc1ccc2c(c1)OCO2 (racemic) [MDMA, 3,4-Methylenedioxymethamphetamine]
Additional genes significantly regulated by MDMA only ([1]; amygdala): 1313 genes | Genes downregulated by MDMA only ([1]; amygdala): 774 genes | Genes regulated by MDMA that are also regulated by methylone ([1]; amygdala): 7% | Genes upregulated by MDMA only ([1]; amygdala): 539 genes | Genes regulated by both treatments ([1]; frontal cortex): 154 genes | More genes regulated than methylone ([1]; frontal cortex): ~72% | Genes significantly regulated ([1]; frontal cortex, 10 mg/kg IP (Example 27)): 825 genes | Ki [2]: 500 nM | Times greater affinity for the 5HT2B receptor compared with methylone [3]: 7.5 times | EC50 (NET [4]): 490 nM | EC50 (SERT [5]): 160 nM | MBP in basolateral and central nuclei of the amygdala vs. vehicle [6]: significant reduction in MBP | IC50 (DAT [7]): 2500 nM | Blood concentrations in deaths attributable to MDMA alone [8]: 478 to 53900 ng/mL | half-life [9]: 5 to 7 h | Reduced freezing vs. saline (extinction recall) [10]: 35% | Agonist % activity (5HT2C receptor [11]): 28.0% | IC50 (NET [12]): 120 nM | Agonist % activity (5HT2A receptor): 27.5% | IC50 (SERT [13]): 1800 nM | EC50 (DAT [14]): 1420 nM | Reduction in immobility in the FST ([15]; 5 mg/kg, Flinders Sensitive Line rats): 45% | Reduction in immobility in the FST ([15]; 5 mg/kg, Sprague Dawley rats (Majumder 2011)): 45% | Reduction in immobility in the FST ([15]; 10 mg/kg, Flinders Sensitive Line rats): 93% | Reduction in immobility in the FST ([15]; 10 mg/kg, Sprague Dawley rats (Majumder 2011)): 78% | Antagonist % inhibition (5HT2C receptor [16]): 52.2%
